{"source": "patent US11440870B2", "about": "“Cannabidiolic acid esters compositions and uses thereof” (Yissum Research Development Company of the Hebrew …, priority 2017, dated 2022)", "assay": "Stability on storage at 4° C.", "conditions": "stored at 4° C. (21 days for the comparison)", "data": [{"compound": "C=C(C)[C@@H]1CCC(C)=C[C@H]1c1c(O)cc(CCCCC)c(C(=O)OC)c1O", "note": "[HU-580, Cannabidiolic Acid Methyl Ester]", "values": [{"measurement": "Stability when stored", "result": "more stable than CBDA"}]}]}
